Tests used:
[1] = MTT cell viability assay, HCT-116; type: cell-based, human; details: human, HCT-116 colon cancer cells; for viability at 24 h, 100 µM: HCT-116, 100 μM
Experimental: (§1) HCT-116 colon cancer cells (Procell, Wuhan, China) were cultured in McCoy’s 5A medium (Gibco; Thermo Fisher Scientific Inc., MA, USA), Hep-G2 hepatocellular carcinoma cells (Procell, Wuhan, China) in Eagle’s minimum essential medium (EMEM, Gibco; Thermo Fisher Scientific Inc., MA, USA), and HCC-1806 breast cancer cells (Manassas, VA, USA) in RPMI-1640 medium (Gibco; Thermo Fisher Scientific Inc., MA, USA). All the mediums were supplemented with 10% fetal bovine serum and 1% penicillin–streptomycin (Thermo Fisher Scientific Inc., MA, USA) and cultured at 37 °C in a humidified incubator with 5% CO2.
(§2) Cell viability was determined by a 3-(4,5-dimethylthiazol-2-yl)-2,5-diphenyltetrazolium bromide (MTT) colorimetric assay. Each cell strain (6000 cells/well) was plated in 96-well microtiter plates and allowed to attach for 24 h at 37 °C and 5% CO2. Compound I or 6-shogaol (in dimethyl sulfoxide, DMSO) was added to the cell culture medium to desired final concentrations of 10, 40, and 100 μM. Final DMSO concentrations for control and treatments were 0.1%. There were six replicates of each condition. After the cells were cultured for 24 h, the medium was removed, and the cells were treated with 5 mg/mL MTT in fresh media. After incubation for 4 h at 37 °C, the medium containing MTT was removed, 100 μL of DMSO was added to the wells, and the plates were shaken gently for 30 min at room temperature. Absorbance values were derived from the plate reading at 490 nm on microplate readers (BioTek, Agilent).

[2] = tested on: HCT-116 colon cancer cells; test: MTT cell viability assay, HCT-116; type: cell-based, human; details: HCT-116, 10 μM, 24 h
Experimental: as §1, §2

[3] = MTT cell viability assay, Hep-G2; type: cell-based; details: human, Hep-G2 hepatocellular carcinoma cells, Hep-G2, 100 μM
Experimental: as §1
as §2, with “After incubation for 4 h at 37 °C, the medium containing MTT was removed, 100 μL of DMSO was added to the wells, and the plates were shaken gently for 30 min at room temperature.” left out

[4] = Pharmacokinetics in rats after single oral (intragastric) administration; type: in vivo; details: male, Sprague-Dawley, rat, 10 mg/kg, plasma, mean ± SD (n = 6); for CL/F: read-out: Cl/F_obs (apparent total body clearance) (converted); for MRT: read-out: MRT (mean residence time); for half-life: read-out: T1/2 (terminal half-life) (converted); for Vd/F: read-out: Vz/F_obs (apparent volume of distribution)
Experimental: A multiple reaction monitoring (MRM) mass acquisition method using a triple quadrupole (QQQ) mass spectrometer was used to determine compound I and 6-shogaol in rat plasma. Chromatographic separation was performed on an Agilent 1290 UPLC equipped with a binary pump with degasser (G4220A), a thermostatic column compartment (G1316C), and an autosampler (G4226A). […] The mobile phase used for the UPLC consisted of 0.1% formic acid in water (v/v) (A) and 0.1% formic acid in acetonitrile (v/v) (B). The elution gradient procedure started at 15% B, then 0–5 min, 15–75% B; 5–6 min, 75–100% B; 6–9 min, 100% B; 9–12 min, 15% B.
MS data were acquired with an Agilent 6460 QQQ mass spectrometer (G6460) equipped with a JetStream electrospray ion (ESI) source. The MRM parameters were as follows: for 6-gingesulfonic acid, negative mode; fragmentor at 120 V; ion pair m/z 357.1 → 80.9 (15 V), 357.1 → 275.1 (15 V). For 6-shogaol, positive mode; fragmentor at 80 V; ion pair m/z 277.2 → 137.0 (11 V), 277.2 → 259.1 (7 V).
The pharmacokinetic parameters were calculated using the PKSolver 2.0 add-in with a non-compartment model.[11],[12] The time to peak drug concentration (Tmax) means the time when plasma concentrations reached a maximum value (Cmax). The area under the concentration versus time curve from zero to the last sampling time (AUC0–t) and to infinity (AUC0–∞), apparent volume of distribution (Vz/F_obs), terminal half-life (T1/2), mean residence time (MRT), and apparent total body clearance (Cl/F_obs), were calculated under the PKSolver add-in. All the results were presented as the mean ± standard deviation (SD) of six independent experiments.

[5] = Stability evaluation of samples in rat plasma (UPLC–QQQ–MS/MS method validation); type: in vitro ADME; details: n=3; for Stability (Mean±SD), Postpreparative: rat plasma samples in autosampler for 8 h; for Stability (Mean±SD), Short Term / Stability (Mean±SD), Freeze and Thaw / Stability (Mean±SD), Long Term: rat plasma; for Stability (Mean±SD), Short Term: room temperature for 4 h; for Stability (Mean±SD), Freeze and Thaw: −20 °C for 24 h and thawed at room temperature, repeated three times; for Stability (Mean±SD), Long Term: −20 °C for 30 days
Experimental: The established UPLC–QQQ–MS/MS methods were validated according to the guidelines of the US Food and Drug Administration.[10] Linearity, limit of detection (LOD), lower limit of quantification (LLOQ), interday and intraday accuracy and precision, extraction recovery, and stability were measured. The calibration curve was replicated three times on the same day (intraday) and over 3 days (interday) to evaluate accuracy and precision. The correlation coefficient (r^2) of all calibration curves was at least 0.995, and the bias and coefficient of variation were kept within ±15%. Matrix effect and recovery evaluation: the matrix effect was given as the ratio of mean peak area for the post-extraction spiked samples (set 2, in plasma) to that of the standard solution samples (set 1, in MeOH). Recovery was quantified as the ratio of mean peak area of the pre-extraction spiked samples (set 3, standard with homogenate plasma) to that of the post-extraction spiked samples (set 2, in plasma). Stability: (1) freeze and thaw: samples were stored at −20 °C for 24 h and thawed at room temperature and repeated three times; (2) short term: samples were maintained at room temperature for 4 h; (3) long term: samples were kept at −20 °C for 30 days; (4) postpreparative: samples were maintained in an autosampler for 8 h. The stability of all the samples was limited to within ±15%, except for the LLOQ within ±20%.

[6] = MTT cell viability assay, HCC-1806; type: cell-based; details: human, HCC-1806 breast cancer cells, HCC-1806, 100 μM
Experimental: as §1
as §2, with “After incubation for 4 h at 37 °C, the medium containing MTT was removed, 100 μL of DMSO was added to the wells, and the plates were shaken gently for 30 min at room temperature.” left out

[7] = Metabolite profiling in rat plasma, urine and feces by UPLC–QTOF–MS/MS; details: rats; for biological samples in which metabolite was detected, 6-Shogaol treated: 10 mg/kg oral 6-shogaol, feces/urine/plasma
Experimental: A total of 12 adult male Sprague–Dawley rats (220–240 g) were purchased from the Chinese University of Hong Kong. The animals were kept in standard living conditions (room temperature 22 ± 1 °C, 12 h light/dark normal cycle, and constant humidity) at the animal laboratory of the School of Chinese Medicine, Hong Kong Baptist University with free access to food and water. All experimental protocols were approved by the Environmental Health and Safety Committee of Hong Kong Baptist University, Hong Kong (03/2017), and the procedures were in accordance with the guidelines of the Animal Care Ethics Committee of Hong Kong Baptist University and the Department of Health, Hong Kong Special Administrative Region. Before the experiment, the rats were kept for one week to acclimate to the new environment. The rats were randomly divided into two groups (n = 6) and fasted with water freely available. On the day of the experiment, by intragastric administration, one group received compound I and the other group received 6-shogaol. Both compounds were dissolved in 2% Tween 80 with an administration volume of less than 0.5 mL at a dose of 10 mg/kg. Then, rats were housed singly during the blood collection period (a total of 72 h). For each sample, 300–500 μL blood was collected from the eye canthus of each rat into tubes containing 1.5 mL EDTA. Samples were drawn at 0.0, 0.08, 0.25, 0.50, 0.75, 1.0, 2.0, 4.0, 6.0, 12, 24, 36, 48, 60, and 72 h. The blood samples were centrifuged at 4000 rpm for 15 min at 4 °C to obtain plasma. Urine and feces were collected every 1–2 h throughout the experiments. The blood, urine, and feces were collected before the intragastric administration as a blank sample. The rats were sacrificed by cervical spondylolisthesis after the experiment.
For metabolite identification and relative quantification, homogeneous biospecimen samples were combined during periods from 0 h to the time when plasmatic concentrations reached a maximum value (Tmax) after intragastric administration. 50 μL of each plasma or urine sample was added to 1.2 mL of MeOH to precipitate proteins. […]

Row | Compound | viability at 24 h, 100 µM [1] | cell viability [2] | viability at 24 h, 100 µM [3] | AUC(0-inf) [4] | AUC(0-t) [4] | Cmax [4] | Tmax [4] | CL/F [4] | MRT [4] | half-life [4] | Vd/F [4] | Stability (Mean±SD), Postpreparative [5] | Stability (Mean±SD), Short Term [5] | Stability (Mean±SD), Freeze and Thaw [5] | Stability (Mean±SD), Long Term [5] | viability at 24 h, 100 µM [6] | viability at 24 h, 10 µM ([1]; HCT-116, 10 μM) | biological samples in which metabolite was detected, 6-Shogaol treated [7] | metabolite concentration in urine and feces samples of 6-gingesulfonic acid group versus 6-shogaol group ([7]; 10 mg/kg oral)
1 | CCCCCC(CC(=O)CCc1ccc(O)c(OC)c1)S(=O)(=O)O (centres unmarked) [6-gingesulfonic acid] | 84.9% | no significant change | 84.2% | 9580 ± 2070 ng·h/mL | 8710 ± 1930 ng·h/mL | 520 ± 138 ng/mL | 5.33 ± 1.63 h | 18 mL/min/kg | 30.4 ± 1.83 h | 20.8 ± 5.23 h | 32.4 ± 9.94 L/kg | 98.19±5.06% | 99.26±1.58% | 92.6±4.31% | 92.26±4.28% | 64.6% | – | – | –
2 | CCCCC/C=C/C(=O)CCc1ccc(O)c(OC)c1 [6-shogaol, reference compound] | 4.17% | – | 2.73% | 121 ± 36.3 ng·h/mL | 76.8 ± 26.9 ng·h/mL | 155 ± 39 ng/mL | 0.14 ± 0.09 h | 1470 mL/min/kg | 1.02 ± 0.82 h | 0.64 ± 0.53 h | 71.9 ± 33 L/kg | 95.87±8.69% | 95.88±8.18% | 96.06±9.07% | 101.23±12.95% | 7.84% | 58.6% | – | –
3 | CCCCCC=CC(O)CCc1ccc(O)c(OC)c1 (centres unmarked) [M1, 1-(4′-hydroxy-3′-methoxyphenyl)-4-decen-3-ol] | – | – | – | – | – | – | – | – | – | – | – | – | – | – | – | – | – | FUP | –
4 | CCCCC/C=C/C(=O)CCc1ccc(OC2OC(C(=O)O)C(O)C(O)C2O)c(OC)c1 (stereo not drawn) [M3, s-6-shogaol-4′-O-β-glucuronide] | – | – | – | – | – | – | – | – | – | – | – | – | – | – | – | – | – | FUP | –
5 | CCCCCC(CC(=O)CCc1ccc(O)c(OC)c1)SCC(NC(=O)CCC(N)C(=O)O)C(=O)NCC(=O)O (centres unmarked) [M4, 5-glutathionyl-6-shogaol] | – | – | – | – | – | – | – | – | – | – | – | – | – | – | – | – | – | – | lower concentrations
